From ChEMBL document CHEMBL1151339, “Antitumor agents from bohemic acid complex, III. The isolation of marcellomycin, musettamycin, rudolphomycin, mimimycin, collinemycin, alcindoromycin, and bohemamine” (J Nat Prod, 1980)
In brackets after ≈: the same amount, converted by molar mass.

Columns and labels:
B16 [1] = assay: Antitumor activity against mouse B16 cells xenografted in BDF1 mouse at 0.1 mg/kg relative to control; type: functional
Staphylococcus = assay: Antibacterial activity against penicillin resistant Staphylococcus A-9606 by 2-fold tube dilution method; type: functional
Mus musculus [2] = assay: Toxicity in BDF1 mouse xenografted with mouse B16 cells assessed as survival at 0.2 mg/kg after 5 days; type: organism-based; parameters: dose 0.2 mg/kg
Mus musculus [3] = assay: Toxicity in BDF1 mouse xenografted with mouse L1210 cells assessed as survival at 6.4 mg/kg, ip after 5 days; type: organism-based; parameters: dose 6.4 mg/kg, route intraperitoneal; conditions: in vivo, 120 h
B16 [4] = assay: Antitumor activity against mouse B16 cells xenografted in BDF1 mouse at 3.2 mg/kg relative to control; type: functional
B16 [5] = assay: Antitumor activity against mouse B16 cells xenografted in BDF1 mouse assessed as change in tumor average weight at 0.8 mg/kg; type: functional
Proteus mirabilis = assay: Antibacterial activity against Proteus mirabilis A-9900 by 2-fold tube dilution method; type: functional
Mus musculus [6] = assay: Toxicity in BDF1 mouse xenografted with mouse B16 cells assessed as survival at 0.1 mg/kg after 5 days; type: organism-based; parameters: dose 0.1 mg/kg
Mus musculus [7] = assay: Toxicity in BDF1 mouse xenografted with mouse L1210 cells assessed as survival at 0.8 mg/kg, ip after 5 days; type: organism-based; parameters: dose 0.8 mg/kg, route intraperitoneal; conditions: in vivo, 120 h
L1210 [8] = assay: Antitumor activity against mouse L1210 cells xenografted in BDF1 mouse at 0.4 mg/kg, ip relative to control; type: functional; conditions: route intraperitoneal
Mus musculus [9] = assay: Toxicity in BDF1 mouse xenografted with mouse B16 cells assessed as survival at 0.025 mg/kg after 5 days; type: organism-based; parameters: dose 0.025 mg/kg
Candida tropicalis = assay: Antifungal activity against Candida tropicalis A15051 by 2-fold tube dilution method; type: functional
L1210 [10] = assay: Antitumor activity against mouse L1210 cells xenografted in BDF1 mouse assessed as change in tumor average weight at 3.2 mg/kg, ip; type: functional; conditions: route intraperitoneal
B16 [11] = assay: Antitumor activity against mouse B16 cells xenografted in BDF1 mouse at 0.2 mg/kg relative to control; type: functional
B16 [12] = assay: Antitumor activity against mouse B16 cells xenografted in BDF1 mouse assessed as change in tumor average weight at 1.6 mg/kg; type: functional
Escherichia coli [13] = assay: Antibacterial activity against Escherichia coli A20341-1 by 2-fold tube dilution method; type: functional
B16 [14] = assay: Antitumor activity against mouse B16 cells xenografted in BDF1 mouse at 0.8 mg/kg relative to control; type: functional
L1210 [15] = assay: Antitumor activity against mouse L1210 cells xenografted in BDF1 mouse at 0.8 mg/kg, ip relative to control; type: functional; conditions: route intraperitoneal
B16 [16] = assay: Antitumor activity against mouse B16 cells xenografted in BDF1 mouse assessed as median survival time at 0.8 mg/kg; type: functional
Pichia kudriavzevii = assay: Antifungal activity against Candida krusei A15052 by 2-fold tube dilution method; type: functional
Proteus vulgaris = assay: Antibacterial activity against Proteus vulgaris A21559 by 2-fold tube dilution method; type: functional
Mus musculus [17] = assay: Toxicity in BDF1 mouse xenografted with mouse B16 cells assessed as survival at 0.8 mg/kg after 5 days; type: organism-based; parameters: dose 0.8 mg/kg
Microsporum canis = assay: Antifungal activity against Microsporum canis A-9872 by 2-fold tube dilution method; type: functional
L1210 [18] = assay: Antitumor activity against mouse L1210 cells xenografted in BDF1 mouse at 3.2 mg/kg, ip relative to control; type: functional; conditions: route intraperitoneal
L1210 [19] = assay: Antitumor activity against mouse L1210 cells xenografted in BDF1 mouse assessed as median survival time at 1.6 mg/kg, ip; type: functional; conditions: route intraperitoneal
L1210 [20] = assay: Antitumor activity against mouse L1210 cells xenografted in BDF1 mouse at 1.6 mg/kg, ip relative to control; type: functional; conditions: route intraperitoneal
B16 [21] = assay: Antitumor activity against mouse B16 cells xenografted in BDF1 mouse at 1.6 mg/kg relative to control; type: functional
Mus musculus [22] = assay: Toxicity in BDF1 mouse xenografted with mouse B16 cells assessed as survival at 0.4 mg/kg after 5 days; type: organism-based; parameters: dose 0.4 mg/kg
B16 [23] = assay: Antitumor activity against mouse B16 cells xenografted in BDF1 mouse assessed as median survival time at 0.025 mg/kg; type: functional
Mus musculus [24] = assay: Toxicity in BDF1 mouse xenografted with mouse B16 cells assessed as survival at 0.05 mg/kg after 5 days; type: organism-based; parameters: dose 0.05 mg/kg
Candida albicans [25] = assay: Antifungal activity against Candida albicans A15049 by 2-fold tube dilution method; type: functional
B16 [26] = assay: Antitumor activity against mouse B16 cells xenografted in BDF1 mouse at 0.025 mg/kg relative to control; type: functional
Escherichia coli [27] = assay: Antibacterial activity against Escherichia coli A15119 by 2-fold tube dilution method; type: functional
B16 [28] = assay: Antitumor activity against mouse B16 cells xenografted in BDF1 mouse assessed as change in tumor average weight at 0.4 mg/kg; type: functional
Staphylococcus aureus = assay: Antibacterial activity against Staphylococcus aureus A-9497 by 2-fold tube dilution method; type: functional
B16 [29] = assay: Antitumor activity against mouse B16 cells xenografted in BDF1 mouse assessed as median survival time at 1.6 mg/kg; type: functional
L1210 [30] = assay: Antitumor activity against mouse L1210 cells xenografted in BDF1 mouse assessed as change in tumor average weight at 0.8 mg/kg, ip; type: functional; conditions: route intraperitoneal
Streptococcus pyogenes = assay: Antibacterial activity against Streptococcus pyogenes A-9604 by 2-fold tube dilution method; type: functional
B16 [31] = assay: Antitumor activity against mouse B16 cells xenografted in BDF1 mouse assessed as change in tumor average weight at 3.2 mg/kg; type: functional
Enterobacter cloacae = assay: Antibacterial activity against Enterobacter cloacae A-9659 by 2-fold tube dilution method; type: functional
Mus musculus [32] = assay: Toxicity in BDF1 mouse xenografted with mouse L1210 cells assessed as survival at 0.4 mg/kg, ip after 5 days; type: organism-based; parameters: dose 0.4 mg/kg, route intraperitoneal; conditions: in vivo, 120 h
B16 [33] = assay: Antitumor activity against mouse B16 cells xenografted in BDF1 mouse assessed as median survival time at 0.05 mg/kg; type: functional
Serratia marcescens = assay: Antibacterial activity against Serratia marcescens A20019 by 2-fold tube dilution method; type: functional
Klebsiella pneumoniae = assay: Antibacterial activity against Klebsiella pneumoniae A15130 by 2-fold tube dilution method; type: functional
Pseudomonas aeruginosa = assay: Antibacterial activity against Pseudomonas aeruginosa A-9843A by 2-fold tube dilution method; type: functional
L1210 [34] = assay: Antitumor activity against mouse L1210 cells xenografted in BDF1 mouse assessed as median survival time at 0.8 mg/kg, ip; type: functional; conditions: route intraperitoneal
L1210 [35] = assay: Antitumor activity against mouse L1210 cells xenografted in BDF1 mouse assessed as change in tumor average weight at 1.6 mg/kg, ip; type: functional; conditions: route intraperitoneal
L1210 [36] = assay: Antitumor activity against mouse L1210 cells xenografted in BDF1 mouse assessed as change in tumor average weight at 0.4 mg/kg, ip; type: functional; conditions: route intraperitoneal
B16 [37] = assay: Antitumor activity against mouse B16 cells xenografted in BDF1 mouse assessed as change in tumor average weight at 0.05 mg/kg; type: functional
Candida albicans [38] = assay: Antifungal activity against Candida albicans A15050 by 2-fold tube dilution method; type: functional
L1210 [39] = assay: Antitumor activity against mouse L1210 cells xenografted in BDF1 mouse assessed as median survival time at 3.2 mg/kg, ip; type: functional; conditions: route intraperitoneal
B16 [40] = assay: Antitumor activity against mouse B16 cells xenografted in BDF1 mouse at 0.4 mg/kg relative to control; type: functional

CC[C@@]1(O)C[C@H](O[C@H]2C[C@H](N(C)C)[C@H](O[C@H]3C[C@H](O)[C@H](O[C@@H]4O[C@@H](C)C(=O)C=C4N)[C@@H](C)O3)[C@@H](C)O2)c2c(cc3c(c2O)C(=O)c2c(O)ccc(O)c2C3=O)[C@H]1C(=O)OC [RUDOLPHOMYCIN]
T/C (B16 [1]): 138% | MIC (Staphylococcus): 32 µg/mL (≈ 38.1 µM) | AC50 (Mus musculus [2]): Non-toxic | Activity (Mus musculus [3]): Toxic | T/C (B16 [4]): 115% | Activity (B16 [5]): -0.2 g | MIC (Proteus mirabilis): > 125 µg/mL | AC50 (Mus musculus [6]): Non-toxic | Activity (Mus musculus [7]): Non-toxic | T/C (L1210 [8]): 107% | AC50 (Mus musculus [9]): Non-toxic | MIC (Candida tropicalis): > 16 µg/mL | Activity (L1210 [10]): -2.2 g | T/C (B16 [11]): 130% | Activity (B16 [12]): -2.5 g | MIC (Escherichia coli [13]): > 125 µg/mL | T/C (B16 [14]): 145% | T/C (L1210 [15]): 120% | Activity (B16 [16]): 29 days | MIC (Pichia kudriavzevii): > 16 µg/mL | MIC (Proteus vulgaris): > 125 µg/mL | AC50 (Mus musculus [17]): Non-toxic | MIC (Microsporum canis): > 16 µg/mL | T/C (L1210 [18]): 107% | Activity (L1210 [19]): 10 days | T/C (L1210 [20]): 133% | T/C (B16 [21]): 160% | AC50 (Mus musculus [22]): Non-toxic | Activity (B16 [23]): 22.5 days | AC50 (Mus musculus [24]): Non-toxic | MIC (Candida albicans [25]): > 16 µg/mL | T/C (B16 [26]): 113% | MIC (Escherichia coli [27]): > 125 µg/mL | Activity (B16 [28]): -0.8 g | MIC (Staphylococcus aureus): 1 µg/mL (≈ 1.19 µM) | Activity (B16 [29]): 32 days | Activity (L1210 [30]): -1.6 g | MIC (Streptococcus pyogenes): 0.25 µg/mL (≈ 0.297 µM) | Activity (B16 [31]): -0.3 g | MIC (Enterobacter cloacae): > 125 µg/mL | Activity (Mus musculus [32]): Non-toxic | Activity (B16 [33]): 22 days | MIC (Serratia marcescens): > 125 µg/mL | MIC (Klebsiella pneumoniae): > 125 µg/mL | MIC (Pseudomonas aeruginosa): > 125 µg/mL | Activity (L1210 [34]): 9 days | Activity (L1210 [35]): -1.2 g | Activity (L1210 [36]): 0.9 g | Activity (B16 [37]): -0.8 g | MIC (Candida albicans [38]): > 16 µg/mL | Activity (L1210 [39]): 8 days | T/C (B16 [40]): 133%
